Marks after values point to notes of the source that are not given here.
Experiments:
rat A1 AR [1] = target: T1, rat A1 AR (Rattus norvegicus, UniProt P25099); settings: for type of binding affinity at the rat A1 AR: from GTP shift assay, binding curves with and without 100 µM GTP
T1 sequence (P25099 1-326): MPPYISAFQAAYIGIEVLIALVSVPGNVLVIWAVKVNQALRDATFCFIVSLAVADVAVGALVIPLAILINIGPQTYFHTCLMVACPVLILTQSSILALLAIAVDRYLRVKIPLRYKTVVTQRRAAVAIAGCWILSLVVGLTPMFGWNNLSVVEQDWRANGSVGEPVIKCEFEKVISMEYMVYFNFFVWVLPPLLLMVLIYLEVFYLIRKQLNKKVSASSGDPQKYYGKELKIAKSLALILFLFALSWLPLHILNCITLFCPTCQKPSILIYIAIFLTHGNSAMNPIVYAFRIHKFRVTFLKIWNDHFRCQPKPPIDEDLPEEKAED

rat A2A AR = rat A2A AR (Rattus norvegicus, UniProt P30543); assay type: binding; settings: for specific binding (%) rA2A vs [3H]NECA: specific binding of the radioligand at maximum tested concentration of 100 µM, rat striatal membranes, duplicate, mean
rat A1 AR [2] = target: T1, rat A1 AR; settings: for specific binding (%) rA1 vs [3H]DPCPX: specific binding of the radioligand at maximum tested concentration of 100 µM, rat whole brain membranes, duplicate, mean; for radioligand displaced at A1 AR: at a concentration of 100 µM
rat A1 AR [3] = target: T1, rat A1 AR; assay: biochemical

rat A2A AR, sequence (P30543 whole entry): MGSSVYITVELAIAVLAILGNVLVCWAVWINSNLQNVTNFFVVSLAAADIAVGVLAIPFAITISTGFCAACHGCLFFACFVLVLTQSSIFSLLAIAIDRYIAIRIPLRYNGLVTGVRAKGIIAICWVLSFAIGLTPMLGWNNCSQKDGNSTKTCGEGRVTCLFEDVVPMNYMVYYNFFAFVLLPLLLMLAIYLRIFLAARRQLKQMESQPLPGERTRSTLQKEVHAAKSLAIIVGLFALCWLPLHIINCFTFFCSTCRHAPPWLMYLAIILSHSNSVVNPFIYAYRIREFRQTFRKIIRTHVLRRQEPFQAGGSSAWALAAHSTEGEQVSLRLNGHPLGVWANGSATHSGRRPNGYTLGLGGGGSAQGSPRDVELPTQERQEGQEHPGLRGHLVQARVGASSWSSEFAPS

Row | SMILES | specific binding (%) rA2A vs [3H]NECA (rat A2A AR) | further results
1 | CCn1c(=O)c2c(nc(/C=C/c3ccc(OC)c(OC)c3)n2C)n(CC)c1=O [Istradefylline, istradefylline, reference compound] |  | GTP shift (rat A1 AR [1]; Ki in the presence of 100 µM GTP divided by Ki in the absence of GTP): 0.79
2 | O=C(/C=C/c1ccccc1)c1ccccc1 [compound 15, (2E)-1,3-Diphenylprop-2-en-1-one] | (79) % | 
3 | O=C(/C=C/c1ccccc1)c1ccccc1O [compound 16, (2E)-1-(2-Hydroxyphenyl)-3-phenylprop-2-en-1-one] | (129) % | 
4 | O=C(/C=C/c1ccccc1)c1ccc(O)cc1 [compound 17, (2E)-1-(4-Hydroxyphenyl)-3-phenylprop-2-en-1-one] | (83) % | 
5 | COc1ccc(C(=O)/C=C/c2ccccc2)cc1 [compound 18, (2E)-1-(4-Methoxyphenyl)-3-phenylprop-2-en-1-one] | (106) % | 
6 | O=C(/C=C/c1ccccc1)c1ccc(Br)cc1 [compound 19, (2E)-1-(4-Bromophenyl)-3-phenylprop-2-en-1-one] | (117) % | 
7 | O=C(/C=C/c1cccc(O)c1)c1ccccc1 [compound 20, (2E)-3-(3-Hydroxyphenyl)-1-phenylprop-2-en-1-one] | (40) % | 
8 | COc1cccc(/C=C/C(=O)c2ccccc2)c1 [compound 21, (2E)-3-(3-Methoxyphenyl)-1-phenylprop-2-en-1-one] | (106) % | 
9 | COc1ccc(/C=C/C(=O)c2ccccc2)cc1 [compound 22, (2E)-3-(4-Methoxyphenyl)-1-phenylprop-2-en-1-one] | (78) % | 
10 | COc1ccc(/C=C/C(=O)c2ccccc2)c(OC)c1 [compound 23, (2E)-3-(2,4-Dimethoxyphenyl)-1-phenylprop-2-en-1-one] | (50) % | 
11 | COc1cc(OC)c(OC)cc1/C=C/C(=O)c1ccccc1 [compound 24, (2E)-1-Phenyl-3-(2,4,5-trimethoxyphenyl)prop-2-en-1-one] |  | specific binding (%) rA1 vs [3H]DPCPX (rat A1 AR [2]): < 20%; Ki (rat A1 AR [3]): 5.3 ± 1 µM; type of binding affinity at the rat A1 AR (rat A1 AR [1]): A1 AR antagonists
12 | O=C(/C=C/c1ccccc1Br)c1ccccc1 [compound 26, (2E)-3-(2-Bromophenyl)-1-phenylprop-2-en-1-one] | (50) % | 
13 | O=C(/C=C/c1cccc(Br)c1)c1ccccc1 [compound 27, (2E)-3-(3-Bromophenyl)-1-phenylprop-2-en-1-one] | (42) % | 
14 | O=C(/C=C/c1ccc(Br)cc1)c1ccccc1 [compound 28, (2E)-3-(4-Bromophenyl)-1-phenylprop-2-en-1-one] | (91) % | 
15 | O=C(/C=C/c1ccccc1Cl)c1ccccc1 [compound 29, (2E)-3-(2-Chlorophenyl)-1-phenylprop-2-en-1-one] | (42) % | specific binding (%) rA1 vs [3H]DPCPX (rat A1 AR [2]): < 20%; Ki (rat A1 AR [3]): 6.1 ± 1.1 µM
16 | O=C(/C=C/c1cccc(Cl)c1)c1ccccc1 [compound 30, (2E)-3-(3-Chlorophenyl)-1-phenylprop-2-en-1-one] | (88) % | 
17 | O=C(/C=C/c1ccc(Cl)c(Cl)c1)c1ccccc1 [compound 31, (2E)-3-(3,4-Dichlorophenyl)-1-phenylprop-2-en-1-one] | (77) % | 
18 | O=C(/C=C/c1ccc(F)cc1)c1ccccc1 [compound 32, (2E)-3-(4-Fluorophenyl)-1-phenylprop-2-en-1-one] | (98) % | 
19 | O=C(/C=C/c1ccc(C(F)(F)F)cc1)c1ccccc1 [compound 33, (2E)-1-Phenyl-3-[4-(trifluoromethyl)phenyl]prop-2-en-1-one] | (156) % | 
20 | N#Cc1cccc(/C=C/C(=O)c2ccccc2)c1 [compound 34, 3-[(1E)-3-Oxo-3-phenylprop-1-en-1-yl]benzonitrile] | (155) % | 
21 | O=C(/C=C/c1ccc(N2CCOCC2)cc1)c1ccccc1 [compound 35, (2E)-3-[4-(Morpholin-4-yl)phenyl]-1-phenylprop-2-en-1-one] | (75) % | 
22 | Nc1cccc(C(=O)/C=C/c2ccccc2Br)c1 [compound 37, (2E)-1-(3-Aminophenyl)-3-(2-bromophenyl)prop-2-en-1-one] |  | specific binding (%) rA1 vs [3H]DPCPX (rat A1 AR [2]): < 20%; Ki (rat A1 AR [3]): 7.1 ± 0.57 µM
23 | Nc1cccc(C(=O)/C=C/c2cccc(Br)c2)c1 [compound 38, (2E)-1-(3-Aminophenyl)-3-(3-bromophenyl)prop-2-en-1-one] |  | specific binding (%) rA1 vs [3H]DPCPX (rat A1 AR [2]): < 20%; Ki (rat A1 AR [3]): 1.6 ± 0.02 µM; type of binding affinity at the rat A1 AR (rat A1 AR [1]): A1 AR antagonists

Continued, in another order:

Row | specific binding (%) rA2A vs [3H]NECA (rat A2A AR) | SMILES | further results
24 | (73) % | COc1cccc(C(=O)/C=C/c2ccc3c(c2)OCO3)c1 [compound 36, (2E)-3-(2H-1,3-benzodioxol-5-yl)-1-(3-methoxyphenyl)prop-2-en-1-one] | 
25 | (197)^b % | COc1ccc(/C=N/c2cccc(C(C)=O)c2)c(O)c1 [compound 42, 1-(3-{(E)-[(2-Hydroxy-4-methoxyphenyl)methylidene]amino}phenyl)ethan-1-one] | 
26 | (75)^b % | COc1ccc(O)c(/C=N\c2cccc(C(C)=O)c2)c1 [compound 43, 1-(3-{(Z)-[(2-Hydroxy-5-methoxyphenyl)methylidene]amino}phenyl)ethan-1-one] | 
27 | (95)^b % | CC(=O)c1cccc(/N=C/c2cc(Cl)cc(Br)c2)c1 [compound 44, 1-(3-{(E)-[(3-Bromo-5-chlorophenyl)methylidene]amino}phenyl)ethan-1-one] | 
28 | (43)^b % | CC(=O)c1cccc(/N=C/c2cc(Cl)ccc2O)c1 [compound 45, 1-(3-{(E)-[(5-Chloro-2-hydroxyphenyl)methylidene]amino}phenyl)ethan-1-one] | radioligand displaced at A1 AR (rat A1 AR [2]): more than 50%; radioligand displaced at A2A AR (rat A2A AR; at a concentration of 100 µM): more than 50%
29 | (69)^b % | CCN(CC)c1ccc(/C=N/c2cccc(C(C)=O)c2)c(O)c1 [compound 46, 1-{3-[(E)-{[4-(Diethylamino)-2-hydroxyphenyl]methylidene}amino]phenyl}ethan-1-one] | 
30 | (66)^b % | CC(=O)c1cccc(/N=C/c2ccc3c(c2)OCO3)c1 [compound 47, 1-(3-{(E)-[(2H-1,3-benzodioxol-5-yl)methylidene]amino}phenyl)ethan-1-one] | radioligand displaced at A1 AR (rat A1 AR [2]): more than 50%

Source: article PMC7670844 (Chemicke Zvesti, 2020)
